According to ChEMBL document CHEMBL3352328, “Synthesis and biological evaluation of a new series of N-acyldiamines as potential antibacterial and antifungal agents” (2014):
≈ marks a conversion by molar mass, not a printed value. Values belong to the compound of their own block, whether it stands above or below them. Calls of active or inactive are those of the source. The calls are words filed in the database; no cut-off is given here.

Tests used:
Staphylococcus aureus [1] = experiment: Bactericidal activity against methicillin-resistant Staphylococcus aureus clinical isolate 8 after 24 hrs; format: functional; conditions: isolate 8, 24 h
Staphylococcus aureus [2] = experiment: Bactericidal activity against methicillin-resistant Staphylococcus aureus clinical isolate 3 after 24 hrs; format: functional; conditions: isolate 3, 24 h
Candida albicans = experiment: Antifungal activity against Candida albicans ATCC 18804 by broth microdilution method; format: functional
Staphylococcus aureus [3] = experiment: Bactericidal activity against methicillin-resistant Staphylococcus aureus clinical isolate 6 after 24 hrs; format: functional; conditions: isolate 6, 24 h
Staphylococcus aureus [4] = experiment: Bactericidal activity against methicillin-resistant Staphylococcus aureus clinical isolate 2 after 24 hrs; format: functional; conditions: isolate 2, 24 h
Pseudomonas aeruginosa [5] = experiment: Bactericidal activity against Pseudomonas aeruginosa ATCC 27853 after 24 hrs; format: functional; conditions: ATCC 27853, 24 h
Staphylococcus aureus [6] = experiment: Bactericidal activity against methicillin-resistant Staphylococcus aureus clinical isolate 7 after 24 hrs; format: functional; conditions: isolate 7, 24 h
[7] = tested on: Staphylococcus epidermidis; experiment: Bactericidal activity against Staphylococcus epidermidis ATCC 12228 after 24 hrs; format: functional; conditions: ATCC 12228, 24 h
Staphylococcus aureus [8] = experiment: Bactericidal activity against methicillin-resistant Staphylococcus aureus clinical isolate 15 after 24 hrs; format: functional; conditions: isolate 15, 24 h
Staphylococcus aureus [9] = experiment: Bactericidal activity against methicillin-resistant Staphylococcus aureus clinical isolate 20 after 24 hrs; format: functional; conditions: isolate 20, 24 h
Staphylococcus aureus [10] = experiment: Bactericidal activity against methicillin-resistant Staphylococcus aureus clinical isolate 21 after 24 hrs; format: functional; conditions: isolate 21, 24 h
Staphylococcus aureus [11] = experiment: Bactericidal activity against methicillin-resistant Staphylococcus aureus clinical isolate 18 after 24 hrs; format: functional; conditions: isolate 18, 24 h
Staphylococcus aureus [12] = experiment: Bactericidal activity against methicillin-resistant Staphylococcus aureus clinical isolate 9 after 24 hrs; format: functional; conditions: isolate 9, 24 h
Staphylococcus aureus [13] = experiment: Bactericidal activity against methicillin-resistant Staphylococcus aureus clinical isolate 19 after 24 hrs; format: functional; conditions: isolate 19, 24 h
Escherichia coli [14] = experiment: Antimicrobial activity against Escherichia coli ATCC 11229 by broth dilution method; format: functional
Staphylococcus aureus [15] = experiment: Bactericidal activity against methicillin-resistant Staphylococcus aureus clinical isolate 5 after 24 hrs; format: functional; conditions: isolate 5, 24 h
Staphylococcus aureus [16] = experiment: Bactericidal activity against methicillin-resistant Staphylococcus aureus clinical isolate 11 after 24 hrs; format: functional; conditions: isolate 11, 24 h
Candida parapsilosis = experiment: Antifungal activity against Candida parapsilosis ATCC 22019 by broth microdilution method; format: functional; conditions: Lodderomyces parapsilosis
Staphylococcus aureus [17] = experiment: Bactericidal activity against methicillin-resistant Staphylococcus aureus clinical isolate after 24 hrs; format: functional
Staphylococcus aureus [18] = experiment: Bactericidal activity against methicillin-resistant Staphylococcus aureus clinical isolate 17 after 24 hrs; format: functional; conditions: isolate 17, 24 h
Staphylococcus aureus [19] = experiment: Bactericidal activity against methicillin-resistant Staphylococcus aureus clinical isolate 12 after 24 hrs; format: functional; conditions: isolate 12, 24 h
Staphylococcus aureus [20] = experiment: Bactericidal activity against methicillin-resistant Staphylococcus aureus clinical isolate 14 after 24 hrs; format: functional; conditions: isolate 14, 24 h
Escherichia coli [21] = experiment: Bactericidal activity against Escherichia coli ATCC 11229 after 24 hrs; format: functional; conditions: ATCC 11229, 24 h
Candida tropicalis = experiment: Antifungal activity against Candida tropicalis ATCC 750 by broth microdilution method; format: functional
Staphylococcus aureus [22] = experiment: Bactericidal activity against Staphylococcus aureus ATCC 29213 after 24 hrs; format: functional; conditions: ATCC 29213, 24 h
Staphylococcus aureus [23] = experiment: Antimicrobial activity against Staphylococcus aureus ATCC 29213 by broth dilution method; format: functional
Staphylococcus aureus [24] = experiment: Bactericidal activity against methicillin-resistant Staphylococcus aureus clinical isolate 13 after 24 hrs; format: functional; conditions: isolate 13, 24 h
Staphylococcus aureus [25] = experiment: Bactericidal activity against methicillin-resistant Staphylococcus aureus clinical isolate 1 after 24 hrs; format: functional; conditions: isolate 1, 24 h
[26] = tested on: Staphylococcus epidermidis; experiment: Antimicrobial activity against Staphylococcus epidermidis ATCC 12228 by broth dilution method; format: functional
Staphylococcus aureus [27] = experiment: Bactericidal activity against methicillin-resistant Staphylococcus aureus clinical isolate 16 after 24 hrs; format: functional; conditions: isolate 16, 24 h
Nakaseomyces glabratus = experiment: Antifungal activity against Candida glabrata ATCC 90030 by broth microdilution method; format: functional
Staphylococcus aureus [28] = experiment: Bactericidal activity against methicillin-resistant Staphylococcus aureus clinical isolate 10 after 24 hrs; format: functional; conditions: isolate 10, 24 h
Pseudomonas aeruginosa [29] = experiment: Antimicrobial activity against Pseudomonas aeruginosa ATCC 27853 by broth dilution method; format: functional
Staphylococcus aureus [30] = experiment: Bactericidal activity against methicillin-resistant Staphylococcus aureus clinical isolate 4 after 24 hrs; format: functional; conditions: isolate 4, 24 h
Staphylococcus aureus [31] = experiment: Bacteriostatic activity against Staphylococcus aureus ATCC 29213 after 24 hrs; format: functional, organism-based
Escherichia coli [32] = experiment: Bacteriostatic activity against Escherichia coli ATCC 11229 after 24 hrs; format: functional, organism-based
[33] = tested on: Staphylococcus epidermidis; experiment: Bacteriostatic activity against Staphylococcus epidermidis ATCC 12228 after 24 hrs; format: functional, organism-based

Compound: CCCCCCCCCCCC(=O)NCCN
MBC (Staphylococcus aureus [1]): 16 µg/mL (≈ 66 µM)
MBC (Staphylococcus aureus [2]): 1020 µg/mL (≈ 4220 µM)
MIC (Candida albicans): 128 µg/mL (≈ 528 µM)
MBC (Staphylococcus aureus [3]): 32 µg/mL (≈ 132 µM)
MBC (Staphylococcus aureus [4]): 256 µg/mL (≈ 1060 µM)
MBC (Pseudomonas aeruginosa [5]): 16 µg/mL (≈ 66 µM)
MBC (Staphylococcus aureus [6]): 32 µg/mL (≈ 132 µM)
MBC [7]: 16 µg/mL (≈ 66 µM)
MBC (Staphylococcus aureus [8]): 1020 µg/mL (≈ 4220 µM)
MBC (Staphylococcus aureus [9]): 256 µg/mL (≈ 1060 µM)
MBC (Staphylococcus aureus [10]): > 1020 µg/mL
MBC (Staphylococcus aureus [11]): 32 µg/mL (≈ 132 µM)
MBC (Staphylococcus aureus [12]): 32 µg/mL (≈ 132 µM)
MBC (Staphylococcus aureus [13]): 128 µg/mL (≈ 528 µM)
MIC (Escherichia coli [14]): 8 µg/mL (≈ 33 µM)
MBC (Staphylococcus aureus [15]): 32 µg/mL (≈ 132 µM)
MBC (Staphylococcus aureus [16]): > 1020 µg/mL
MIC (Candida parapsilosis): 16 µg/mL (≈ 66 µM)
MIC50 (Staphylococcus aureus [17]): 32 µg/mL (≈ 132 µM)
MIC90 (Staphylococcus aureus [17]): > 1020 µg/mL
MBC (Staphylococcus aureus [18]): 256 µg/mL (≈ 1060 µM)
MBC (Staphylococcus aureus [19]): > 1020 µg/mL
MBC (Staphylococcus aureus [20]): > 1020 µg/mL
MBC (Escherichia coli [21]): 16 µg/mL (≈ 66 µM)
MIC (Candida tropicalis): 16 µg/mL (≈ 66 µM)
MBC (Staphylococcus aureus [22]): 16 µg/mL (≈ 66 µM)
MIC (Staphylococcus aureus [23]): 16 µg/mL (≈ 66 µM)
MBC (Staphylococcus aureus [24]): 32 µg/mL (≈ 132 µM)
MBC (Staphylococcus aureus [25]): 1020 µg/mL (≈ 4220 µM)
MIC [26]: 16 µg/mL (≈ 66 µM)
MBC (Staphylococcus aureus [27]): 1020 µg/mL (≈ 4220 µM)
MIC (Nakaseomyces glabratus): 16 µg/mL (≈ 66 µM)
MBC (Staphylococcus aureus [28]): 32 µg/mL (≈ 132 µM)
MIC (Pseudomonas aeruginosa [29]): 8 µg/mL (≈ 33 µM)
MBC (Staphylococcus aureus [30]): 256 µg/mL (≈ 1060 µM)

MIC (Candida albicans): 8 µg/mL (≈ 24.5 µM)
MIC (Escherichia coli [14]): 1020 µg/mL (≈ 3140 µM)
MIC (Candida parapsilosis): 128 µg/mL (≈ 392 µM)
MIC (Candida tropicalis): 64 µg/mL (≈ 196 µM)
MIC (Staphylococcus aureus [23]): 512 µg/mL (≈ 1570 µM)
MIC [26]: 16 µg/mL (≈ 49 µM)
MIC (Nakaseomyces glabratus): 32 µg/mL (≈ 98 µM)
MIC (Pseudomonas aeruginosa [29]): > 1020 µg/mL
Compound: CCCCCCCCCCCCCCCC(=O)NCCCCN
MBC [7]: 128 µg/mL (≈ 392 µM)
MBC (Escherichia coli [21]): 1020 µg/mL (≈ 3140 µM)
Activity (Staphylococcus aureus [31]): Active

MIC (Candida albicans): 64 µg/mL (≈ 205 µM)
MIC (Escherichia coli [14]): 32 µg/mL (≈ 102 µM)
MIC (Candida parapsilosis): 8 µg/mL (≈ 25.6 µM)
MIC (Candida tropicalis): 16 µg/mL (≈ 51.2 µM)
MIC (Staphylococcus aureus [23]): > 1020 µg/mL
MIC [26]: 4 µg/mL (≈ 12.8 µM)
MIC (Nakaseomyces glabratus): 8 µg/mL (≈ 25.6 µM)
MIC (Pseudomonas aeruginosa [29]): > 1020 µg/mL
Compound: CCCCCCCCCCCCCCCC(=O)NCCCN
MBC [7]: 64 µg/mL (≈ 205 µM)
Activity (Escherichia coli [32]): Active

MIC (Candida albicans): 128 µg/mL (≈ 394 µM)
MIC (Escherichia coli [14]): > 1020 µg/mL
MIC (Candida parapsilosis): 128 µg/mL (≈ 394 µM)
MIC (Candida tropicalis): 128 µg/mL (≈ 394 µM)
MIC (Staphylococcus aureus [23]): > 1020 µg/mL
MIC [26]: 8 µg/mL (≈ 24.6 µM)
MIC (Nakaseomyces glabratus): 64 µg/mL (≈ 197 µM)
MIC (Pseudomonas aeruginosa [29]): > 1020 µg/mL
Compound: CCCCCCCC/C=C\CCCCCCCC(=O)NCCN
Activity [33]: Active
